Measurements as given in ChEMBL document CHEMBL4311972, “Discovery of a benzothiophene-flavonol halting miltefosine and antimonial drug resistance in Leishmania parasites through the application of medicinal chemistry, screening and genomics” (Eur J Med Chem, 2019).

Tests used:
CYP3A4 = CYP3A4 (Homo sapiens, UniProt P08684); experiment: Inhibition of human microsomal CYP3A4 expressed in baculovirus infected insect cells at 10 uM using luciferin-IPA as substrate preincubated with enzyme/substrate mixture for 30 mins followed by further incubation with NADPH for 30 mins by CYP450 luciferase Glo assay relative to control; assay type: ADME; settings: probe luciferin-IPA
Chain of CYP3A4 (P08684 whole entry): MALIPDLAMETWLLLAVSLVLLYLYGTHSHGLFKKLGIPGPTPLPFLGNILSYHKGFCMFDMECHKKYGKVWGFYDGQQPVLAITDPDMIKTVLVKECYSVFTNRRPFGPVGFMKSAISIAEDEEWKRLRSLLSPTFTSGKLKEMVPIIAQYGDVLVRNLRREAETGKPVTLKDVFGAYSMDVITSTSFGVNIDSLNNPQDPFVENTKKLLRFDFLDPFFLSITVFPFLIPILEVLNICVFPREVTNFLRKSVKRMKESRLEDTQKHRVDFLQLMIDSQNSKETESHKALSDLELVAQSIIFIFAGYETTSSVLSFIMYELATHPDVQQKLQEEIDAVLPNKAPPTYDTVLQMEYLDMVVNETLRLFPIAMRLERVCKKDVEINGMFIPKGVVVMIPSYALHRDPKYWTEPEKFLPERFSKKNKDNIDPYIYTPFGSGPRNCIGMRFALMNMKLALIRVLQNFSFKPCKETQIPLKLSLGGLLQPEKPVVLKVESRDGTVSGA

[1] = Cytotoxicity against human THP1 cells by MTT assay; assay type: cell-based, THP-1
786-0 = experiment: Mitochondrial toxicity in human 786-0 cells at 10 uM incubated with compound for 6 hrs followed by incubation with MitoTracker Red chloromethyl-X-rosamine dye for 45 mins by imaging analysis; assay type: cell-based; settings: 786-0, 6 h
CYP1A2 = biological target: T1, CYP1A2 (Homo sapiens, UniProt P05177); experiment: Inhibition of human microsomal CYP1A2 expressed in baculovirus infected insect cells at 10 uM using luciferin-1A2 as substrate preincubated with enzyme/substrate mixture for 30 mins followed by further incubation with NADPH for 30 mins by CYP450 luciferase Glo assay relative to control; assay type: ADME; settings: probe luciferin-1A2
T1 sequence (P05177 whole entry): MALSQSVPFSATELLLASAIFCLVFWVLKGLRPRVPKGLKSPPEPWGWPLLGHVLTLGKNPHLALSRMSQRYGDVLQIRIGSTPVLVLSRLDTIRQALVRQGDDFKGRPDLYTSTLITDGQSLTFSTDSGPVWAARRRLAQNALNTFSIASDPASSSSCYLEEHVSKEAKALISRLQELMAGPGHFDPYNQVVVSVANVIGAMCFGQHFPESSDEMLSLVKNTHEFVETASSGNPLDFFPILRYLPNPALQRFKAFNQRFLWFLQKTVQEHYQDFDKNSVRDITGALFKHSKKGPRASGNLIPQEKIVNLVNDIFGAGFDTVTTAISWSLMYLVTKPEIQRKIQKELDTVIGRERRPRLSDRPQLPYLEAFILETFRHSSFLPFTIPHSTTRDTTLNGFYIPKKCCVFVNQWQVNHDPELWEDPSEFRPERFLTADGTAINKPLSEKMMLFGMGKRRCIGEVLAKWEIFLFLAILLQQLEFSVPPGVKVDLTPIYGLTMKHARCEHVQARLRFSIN

CYP2D6 = CYP2D6 (Homo sapiens, UniProt P10635); experiment: Inhibition of human microsomal CYP2D6 expressed in baculovirus infected insect cells at 10 uM using luciferin-ME as substrate preincubated with enzyme/substrate mixture for 30 mins followed by further incubation with NADPH for 30 mins by CYP450 luciferase Glo assay relative to control; assay type: ADME; settings: probe luciferin-ME
Chain of CYP2D6 (P10635 whole entry): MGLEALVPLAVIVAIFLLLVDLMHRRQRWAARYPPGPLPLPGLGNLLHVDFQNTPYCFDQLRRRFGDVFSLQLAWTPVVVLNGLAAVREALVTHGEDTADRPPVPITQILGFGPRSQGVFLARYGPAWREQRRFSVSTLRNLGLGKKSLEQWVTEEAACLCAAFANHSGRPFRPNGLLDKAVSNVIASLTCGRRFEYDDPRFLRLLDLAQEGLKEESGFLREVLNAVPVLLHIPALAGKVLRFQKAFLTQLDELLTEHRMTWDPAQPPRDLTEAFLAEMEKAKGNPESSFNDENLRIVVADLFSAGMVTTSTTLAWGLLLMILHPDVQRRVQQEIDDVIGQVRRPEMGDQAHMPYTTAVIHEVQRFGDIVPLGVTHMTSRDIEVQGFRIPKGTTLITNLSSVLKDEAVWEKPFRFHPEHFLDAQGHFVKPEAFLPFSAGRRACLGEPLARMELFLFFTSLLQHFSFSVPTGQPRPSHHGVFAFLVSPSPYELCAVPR

hERG (KCNH2) = hERG (KCNH2) (Homo sapiens, UniProt Q12809); experiment: Inhibition of human ERG at 10 uM incubated for 2 hrs by fluorescence polarization assay relative to control
Chain of hERG (KCNH2) (Q12809 whole entry): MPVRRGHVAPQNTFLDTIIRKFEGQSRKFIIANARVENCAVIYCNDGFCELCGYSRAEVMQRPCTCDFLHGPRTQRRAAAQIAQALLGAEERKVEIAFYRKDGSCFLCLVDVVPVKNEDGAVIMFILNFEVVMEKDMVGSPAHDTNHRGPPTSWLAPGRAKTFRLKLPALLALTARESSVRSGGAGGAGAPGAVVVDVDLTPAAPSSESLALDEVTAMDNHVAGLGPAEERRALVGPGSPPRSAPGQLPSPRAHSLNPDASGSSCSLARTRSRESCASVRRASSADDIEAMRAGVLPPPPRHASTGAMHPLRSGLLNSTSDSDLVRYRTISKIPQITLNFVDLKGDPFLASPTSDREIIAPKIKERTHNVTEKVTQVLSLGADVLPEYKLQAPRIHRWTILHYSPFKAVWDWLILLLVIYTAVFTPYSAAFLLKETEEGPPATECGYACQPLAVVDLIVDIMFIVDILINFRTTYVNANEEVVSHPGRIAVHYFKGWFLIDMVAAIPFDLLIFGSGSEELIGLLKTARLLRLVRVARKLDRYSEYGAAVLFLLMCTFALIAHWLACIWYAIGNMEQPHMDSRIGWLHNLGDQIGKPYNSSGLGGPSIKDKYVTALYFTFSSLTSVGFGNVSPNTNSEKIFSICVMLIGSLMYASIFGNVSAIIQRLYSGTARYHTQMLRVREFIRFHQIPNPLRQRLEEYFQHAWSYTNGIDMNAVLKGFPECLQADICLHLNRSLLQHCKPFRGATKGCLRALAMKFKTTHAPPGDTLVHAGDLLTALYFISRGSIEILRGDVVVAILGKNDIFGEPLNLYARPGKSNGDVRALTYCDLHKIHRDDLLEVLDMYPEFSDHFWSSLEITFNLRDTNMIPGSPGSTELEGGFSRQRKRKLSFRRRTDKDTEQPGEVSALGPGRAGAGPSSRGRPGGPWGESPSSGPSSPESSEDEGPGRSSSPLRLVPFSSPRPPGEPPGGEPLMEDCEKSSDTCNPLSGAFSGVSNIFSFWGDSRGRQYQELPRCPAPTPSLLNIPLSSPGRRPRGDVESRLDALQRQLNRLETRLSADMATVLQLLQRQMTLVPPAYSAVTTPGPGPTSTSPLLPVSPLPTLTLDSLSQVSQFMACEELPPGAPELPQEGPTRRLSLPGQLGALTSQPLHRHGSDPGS

[2] = Cytotoxicity against human A549 cells assessed as cell growth at […] incubated for 48 hrs by Celltiter-Glo luminescence assay relative to control; assay type: cell-based; parameters: dose or concentration left out as unconfirmed; settings: read-out: Activity
CYP2C19 = CYP2C19 (Homo sapiens, UniProt P33261); experiment: Inhibition of human microsomal CYP2C19 expressed in baculovirus infected insect cells at 10 uM using luciferin-H EGE as substrate preincubated with enzyme/substrate mixture for 30 mins followed by further incubation with NADPH for 30 mins by CYP450 luciferase Glo assay relative to control; assay type: ADME; settings: probe luciferin-H EGE
Chain of CYP2C19 (P33261 whole entry): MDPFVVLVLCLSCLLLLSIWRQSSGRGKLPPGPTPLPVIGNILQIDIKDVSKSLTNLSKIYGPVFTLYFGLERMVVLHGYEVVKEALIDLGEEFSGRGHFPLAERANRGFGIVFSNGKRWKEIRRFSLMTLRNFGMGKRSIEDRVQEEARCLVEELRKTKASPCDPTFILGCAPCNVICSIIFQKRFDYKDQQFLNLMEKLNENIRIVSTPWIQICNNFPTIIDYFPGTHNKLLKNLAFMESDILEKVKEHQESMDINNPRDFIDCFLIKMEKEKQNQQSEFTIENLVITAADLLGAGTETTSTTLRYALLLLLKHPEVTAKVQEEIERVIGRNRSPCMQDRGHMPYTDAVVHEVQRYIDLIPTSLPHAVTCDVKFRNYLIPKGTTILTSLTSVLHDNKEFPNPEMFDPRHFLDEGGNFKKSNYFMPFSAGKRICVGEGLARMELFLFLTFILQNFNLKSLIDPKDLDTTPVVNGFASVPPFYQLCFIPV

Trypanosoma brucei = experiment: Antitrypanosomal activity against Trypanosoma brucei bloodstream form assessed as parasite growth inhibition incubated for 72 hrs by resazurin dye based assay; assay type: functional, organism-based
CYP2C9 = CYP2C9 (Homo sapiens, UniProt P11712); experiment: Inhibition of human microsomal CYP2C9 expressed in baculovirus infected insect cells at 10 uM using luciferin-H as substrate preincubated with enzyme/substrate mixture for 30 mins followed by further incubation with NADPH for 30 mins by CYP450 luciferase Glo assay relative to control; assay type: ADME; settings: probe luciferin-H
Chain of CYP2C9 (P11712 whole entry): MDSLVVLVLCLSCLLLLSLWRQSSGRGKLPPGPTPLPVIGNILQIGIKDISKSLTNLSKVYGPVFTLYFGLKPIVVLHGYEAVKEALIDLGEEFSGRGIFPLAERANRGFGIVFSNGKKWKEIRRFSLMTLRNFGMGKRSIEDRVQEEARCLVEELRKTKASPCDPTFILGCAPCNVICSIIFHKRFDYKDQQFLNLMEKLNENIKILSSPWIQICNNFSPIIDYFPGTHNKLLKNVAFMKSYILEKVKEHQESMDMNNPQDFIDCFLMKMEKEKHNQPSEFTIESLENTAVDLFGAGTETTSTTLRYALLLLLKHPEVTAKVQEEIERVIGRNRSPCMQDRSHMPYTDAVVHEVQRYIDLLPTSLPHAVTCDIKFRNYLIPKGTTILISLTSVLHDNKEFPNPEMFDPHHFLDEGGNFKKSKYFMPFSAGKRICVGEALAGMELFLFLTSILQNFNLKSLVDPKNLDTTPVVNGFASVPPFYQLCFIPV

Leishmania infantum = experiment: Antileishmanial activity against luciferase expressing intracellular amastigote stage of Leishmania infantum infected in human THP1 cells assessed as parasite growth inhibition measured after 48 to 72 hrs by steady-glo luciferase assay; assay type: functional, organism-based

Row | SMILES | inhibition at 0.5 h, 10 µM (CYP3A4) | inhibition at 0.5 h, 10 µM (CYP1A2) | inhibition at 0.5 h, 10 µM (CYP2D6) | inhibition at 0.5 h, 10 µM (CYP2C19) | EC50 (Trypanosoma brucei) | inhibition at 0.5 h, 10 µM (CYP2C9) | EC50 (Trypanosoma brucei; Trypanosoma brucei, 72 h, read-out: EC50) | CC50 [1] | Activity (786-0) | inhibition at 2 h, 10 µM (hERG (KCNH2)) | viability at 48 h [2] | EC50 (Leishmania infantum)
1 | Cc1ccsc1-c1oc2cc(O)ccc2c(=O)c1O | 73.8% | 108% | 24.1% | 57.9% | Not Active | 43.8% | – | 12.5 to 20 µM | -3.38% | -1.79% | 83.4% | –
2 | COc1ccc2oc(-c3ccc4ncccc4c3)c(O)c(=O)c2c1 | -3.86% | 27.4% | -15.1% | -8.24% | Not Active | -3.36% | – | > 100 µM | -7.05% | 16.1% | 101% | –
3 | COc1ccc2oc(-c3cn(C)c4ccccc34)c(O)c(=O)c2c1 | 22% | 89.2% | 3.57% | -1.53% | – | -0.02% | – | – | -1.87% | 12.7% | 18.6% | –
4 | O=c1c(O)c(-c2csc3ccccc23)oc2cc(F)ccc12 | 9.54% | 80.6% | 23% | 24.2% | – | 26.5% | – | 25 to 50 µM | -22.29% | 11.6% | 124% | Not Active
5 | Cc1csc(-c2oc3cccc(O)c3c(=O)c2O)c1 | 6.11% | 106% | 10.9% | 27.3% | Not Active | 71.8% | – | > 100 µM | 5.8% | 34.2% | 56.8% | –

Continued, in another order:

Row | inhibition at 0.5 h, 10 µM (CYP3A4) | inhibition at 0.5 h, 10 µM (CYP1A2) | inhibition at 0.5 h, 10 µM (CYP2D6) | inhibition at 0.5 h, 10 µM (CYP2C19) | EC50 (Trypanosoma brucei) | inhibition at 0.5 h, 10 µM (CYP2C9) | EC50 (Trypanosoma brucei; Trypanosoma brucei, 72 h, read-out: EC50) | SMILES | CC50 [1] | Activity (786-0) | inhibition at 2 h, 10 µM (hERG (KCNH2)) | viability at 48 h [2] | EC50 (Leishmania infantum)
6 | 5.81% | 90% | 20.3% | 62.3% | – | 28.1% | 3.1 µM | COc1ccc2c(=O)c(O)c(-c3csc4ccccc34)oc2c1 | 25 to 50 µM | -22.67% | -4.35% | 53.9% | Not Active
7 | 7.49% | 96.7% | 36.2% | 73.2% | Not Active | 47.6% | – | O=c1c(O)c(-c2ccco2)oc2ccc(O)cc12 | 20 to 50 µM | 4.3% | 6.43% | 104% | –
8 | 14.1% | 104% | 50.8% | 54.3% | Not Active | 71.3% | – | COc1ccc2oc(-c3ccco3)c(O)c(=O)c2c1 | 50 to 100 µM | -0.99% | -1.31% | 106% | –
9 | -0.65% | 103% | 23.4% | 68.7% | Not Active | 46.3% | – | COc1ccc2c(=O)c(O)c(-c3ccco3)oc2c1 | > 100 µM | -1.6% | -3.37% | 102% | –
10 | 14.1% | 93.5% | 28.4% | 65.4% | Not Active | 83.7% | – | O=c1c(O)c(-c2ccco2)oc2cc(O)ccc12 | > 100 µM | -1.18% | 18.7% | 108% | –
